US20100311714A1, “1H-IMIDAZO[4,5-c]QUINOLINONE COMPOUNDS” (priority 2009, published 2010)
Read-outs that look alike come from different tables or passages of the source.

Experiments:
[1] = tested on: S6 Ribosomal Protein phosphorylation Ser235/236 in TSC1 null mouse embryo fibroblast (MEF) cells; test: Reverse protein array, S6 Ribosomal Protein phosphorylation in TSC1 null MEF cells; assay type: cell-based; conditions: 1 h, TSC1-/- MEFs, 60 minutes
Procedure, shortened: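 Phospho-S6 (Ser235/236) was quantified by reverse protein array of cell lysates with a phospho-specific primary antibody. […]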

[2] = tested on: PKB Ser473 phosphorylation in Rat1-myr-HA-p110 delta cells; test: Reverse protein array, PKB Ser473 phosphorylation in Rat1-myr-HA-p110 delta cells; assay type: cell-based; conditions: Rattus norvegicus, 0.5 h, 30 minutes compound incubation, read-out: p-PKB/IC50_delta

| Compound | IC50 ([1]; read-out: p-S6 IC50) [nM] | IC50 [2] [nM] | IC50 ([1]; read-out: p-S6) [nM] |
| --- | --- | --- | --- |
| CCOc1cc(-c2ccc3ncc4c(c3c2)n(-c2cccnc2C)c(=O)n4C)cnc1C [Example 2.22, 8-(5-Ethoxy-6-methyl-pyridin-3-yl)-3-methyl-1-(2-methyl-pyridin-3-yl)-1,3-dihydro-imidazo[4,5-c]quinolin-2-one] | 12 | 75.7 |  |
| CCOc1ccc(-c2ccc3ncc4c(c3c2)n(-c2cccnc2OC)c(=O)n4C)cn1 [Example 1.5, 8-(6-Ethoxy-pyridin-3-yl)-1-(2-methoxy-pyridin-3-yl)-3-methyl-1,3-dihydro-imidazo[4,5-c]quinolin-2-one] |  | 59.6 | 48.6 |
| CNc1ncc(-c2ccc3ncc4c(c3c2)n(-c2ccc(NC(=O)COC)nc2C)c(=O)n4C)cn1 [Example 20.3, 2-Methoxy-N-{6-methyl-5-[3-methyl-8-(2-methylamino-pyrimidin-5-yl)-2-oxo-2,3-dihydro-imidazo[4,5-c]quinolin-1-yl]-pyridin-2-yl}-acetamide] | 44 | 218 |  |
| Cc1cc(F)ncc1-n1c(=O)n(C)c2cnc3ccc(-c4cnc5c(ccn5C)c4)cc3c21 [Example 16.5, 1-(6-Fluoro-4-methyl-pyridin-3-yl)-3-methyl-8-(1-methyl-1H-pyrrolo[2,3-b]pyridin-5-yl)-1,3-dihydro-imidazo[4,5-c]quinolin-2-one] | 12.6 | 407 |  |
| CCN(C)c1ccc(-n2c(=O)n(C)c3cnc4ccc(-c5ccc(NC)nc5)cc4c32)c(C)n1 [Example 12.1, 1-[6-(Ethyl-methyl-amino)-2-methyl-pyridin-3-yl]-3-methyl-8-(6-methylamino-pyridin-3-yl)-1,3-dihydro-imidazo[4,5-c]quinolin-2-one] | < 0.457 | 45.7 |  |
| COc1ccc(-n2c(=O)n(C)c3cnc4ccc(-c5ccc6nccn6c5)cc4c32)c(OC)n1 [Example 8.10, 1-(2,6-Dimethoxy-pyridin-3-yl)-8-imidazo[1,2-a]pyridin-6-yl-3-methyl-1,3-dihydro-imidazo[4,5-c]quinolin-2-one] | 6.8 | 412 |  |
| Cc1ncccc1-n1c(=O)n(C)c2cnc3ccc(-c4cnc5c(ccn5C)c4)cc3c21 [Example 2.14, 3-Methyl-1-(2-methyl-pyridin-3-yl)-8-(1-methyl-1H-pyrrolo[2,3-b]pyridin-5-yl)-1,3-dihydro-imidazo[4,5-c]quinolin-2-one] |  | 61.7 | 8.74 |
| CCNc1cc(-c2ccc3ncc4c(c3c2)n(-c2ccc(N(C)CC)nc2C)c(=O)n4C)cnc1C [Example 12.2, 8-(5-Ethylamino-6-methyl-pyridin-3-yl)-1-[6-(ethyl-methyl-amino)-2-methyl-pyridin-3-yl]-3-methyl-1,3-dihydro-imidazo[4,5-c]quinolin-2-one] | 3 | < 4.57 |  |
| Cc1ccc(-n2c(=O)n(C)c3cnc4ccc(-c5cnc6c(ccn6C)c5)cc4c32)c(C)n1 [Example 14.7, 1-(2,6-Dimethyl-pyridin-3-yl)-3-methyl-8-(1-methyl-1H-pyrrolo[2,3-b]pyridin-5-yl)-1,3-dihydro-imidazo[4,5-c]quinolin-2-one] | 3 | 45.4 |  |
